The text below walks through data of patent US12338256B2, “Aza-tetracyclic oxazepine compounds and uses thereof” (Genentech, Inc., priority 2022, dated 2025).

Type in all cases: cell-based
In experiment [1] the test system is HPAC (homozygous mutant KRAS G12D human pancreatic cell line). In words: KRAS 3D-Cell Proliferation Assay, HPAC (Example 503). To be noted: Homo sapiens, HPAC, 168 h, HPAC 3D culture, 7 days, CellTiter-Glo 3D; read-out: Prolif HPAC 3D ATP IC50. The method in brief: (§1)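 KRAS G12D homozygous pancreatic lines and KRAS wild-type lung lines grown as 3D cultures in ultra-low-attachment wells in RPMI-1640/10% FBS, dosed after overnight with compound dilution series (0.3% DMSO final) for 7 days at 37 °C. ATP read by CellTiter-Glo 3D luminescence; IC50 from 4-parameter Hill fit, normalized to DMSO and 1 μM staurosporine.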
(In general: Cellular ATP, detected with luciferase, serves as a proxy for viable cell number.)

For experiment [2], the system named is PC-9 (KRAS wild type human lung adenocarcinoma cell line). The experiment can be described thus: KRAS 3D-Cell Proliferation Assay, PC-9 (Example 503). To be noted: 168 h, PC-9 3D culture, 7 days, CellTiter-Glo 3D, read-out: Prolif PC9 3D ATP IC50. In short, it runs like this: as §1
Experiment [3] has as its system AsPC-1 (homozygous mutant KRAS G12D human pancreatic cell line). The experiment can be described thus: KRAS 3D-Cell Proliferation Assay, AsPC-1 (Example 503). To be noted: Homo sapiens, ASPC1, 168 h, AsPC-1 3D culture, 7 days, CellTiter-Glo 3D; read-out: Prolif AsPC-1 3D ATP IC50. The method in brief: as §1
Experiment [4] concerns H1975 (KRAS wild type human lung adenocarcinoma cell line). The experiment can be described thus: KRAS 3D-Cell Proliferation Assay, H1975 (Example 503). To be noted: Homo sapiens, NCI-H1975, 168 h, H1975 3D culture, 7 days, CellTiter-Glo 3D; read-out: Prolif H1975 3D ATP IC50. The method in brief:
as §1

Some results are limits rather than exact numbers.

`C=C1CN2CCC[C@@]2(COc2nc3c4c(nc(-c5cc(O)cc6cccc(CC)c56)c(F)c4n2)O[C@@H](C)[C@@H]2[C@@H]4CC[C@H](CN32)N4)C1` [Compound 80, 5-Ethyl-4-((5S,5aS,6S,9R)-1-fluoro-5-methyl-12-(((S)-2-methylenetetrahydro-1H-pyrrolizin-7a(5H)-yl)methoxy)-5a,6,7,8,9,10-hexahydro-5H-4-oxa-3,10a,11,13,14-pentaaza-6,9-methanonaphtho[1,8-ab]heptalen-2-yl)naphthalen-2-ol]: the IC50 (in general, the concentration at which inhibition is half-maximal) in experiment [1] came out at 2.76 nM; in experiment [2], 4050 nM; in experiment [3], 5.08 nM; in experiment [4] it was 924 nM.

Consider `C#Cc1c(F)ccc2cc(O)cc(-c3nc4c5c(nc(OC[C@@]67CCCN6C[C@H](F)C7)nc5c3F)N3C[C@H]5CC[C@H](N5)[C@H]3CO4)c12` [Compound 81, 5-Ethynyl-6-fluoro-4-((5aS,6S,9R)-1-fluoro-12-(((2R,7aS)-2-fluorotetrahydro-1H-pyrrolizin-7a(5H)-yl)methoxy)-5a,6,7,8,9,10-hexahydro-5H-4-oxa-3,10a,11,13,14-pentaaza-6,9-methanonaphtho[1,8-ab]heptalen-2-yl)naphthalen-2-ol], for which the IC50 in experiment [1] was 12.4 nM; in experiment [2], no less than 20000 nM; in experiment [3], 14.7 nM; in experiment [4], 4780 nM.

`C[C@@H]1Oc2nc(-c3nc(N)c(F)cc3C(F)(F)F)c(F)c3nc(OC[C@@]45CCCN4CC4(CC4(F)F)C5)nc(c23)N2C[C@H]3CC[C@H](N3)[C@@H]12` (stereo partly drawn) [Compound 86, 6-((5S,5aS,6S,9R)-12-(((7a′S)-2,2-difluorodihydro-1′H,3′H-spiro[cyclopropane-1,2′-pyrrolizin]-7a′(5′H)-yl)methoxy)-1-fluoro-5-methyl-5a,6,7,8,9,10-hexahydro-5H-4-oxa-3,10a,11,13,14-pentaaza[6,9]methanonaphtho[1,8-ab]heptalen-2-yl)-3-fluoro-5-(trifluoromethyl)pyridin-2-amine]: the IC50 in experiment [1] came out at 126 nM; in experiment [2], 8750 nM; in experiment [3] it was 144 nM; in experiment [4], 5430 nM.

As to `C[C@@H]1Oc2nc(-c3nc(N)c(F)cc3C(F)(F)F)c(F)c3nc(OC[C@]45CCN4CC(F)(F)C5)nc(c23)N2C[C@H]3CC[C@H](N3)[C@@H]12` [Compound 87, 6-((5S,5aS,6S,9R)-12-(((R)-3,3-Difluoro-1-azabicyclo[3.2.0]heptan-5-yl)methoxy)-1-fluoro-5-methyl-5a,6,7,8,9,10-hexahydro-5H-4-oxa-3,10a,11,13,14-pentaaza-6,9-methanonaphtho[1,8-ab]heptalen-2-yl)-3-fluoro-5-(trifluoromethyl)pyridin-2-amine], the IC50 in experiment [1] is 1400 nM; in experiment [2], no less than 20000 nM; in experiment [3], 4030 nM; in experiment [4], 20000 nM.
